Experiments:
[1] = thermal stress stability of solid form; format: physicochemical; settings: 60° C. for 7 days
Method: (§1) Form B is stable under thermal stress of 60° C. for 7 days. […] In one embodiment isolated Compound IA Form B is stable for at least about 6, 7, 8, 9, 10, 11, 12, 14, 16, 18, 20, 22, or 24 months.

[2] = long-term stability study of solid form; format: physicochemical; settings: 25° C. and 60% relative humidity
Method: as §1

[3] = dynamic vapor sorption experiment; format: physicochemical; settings: exposure to 90% relative humidity
NSCLC PDX models = test: NSCLC PDX model panel, tumor growth inhibition; format: in vivo; settings: for sensitivity of PDX models by genetic alteration: 100 mg/kg
Method: NSCLC PDX models (n=60) were treated for up to 28 days with daily oral doses of vehicle or Compound 1 (100 mg/kg). Tumor growth inhibition (TGI) was calculated when tumors reached pre-specified tumor burden or on day 28. Genetic alterations from pre-treated samples were evaluated using FoundationOne. 58% TGI was used as the responder/non-responder cutoff for correlation analysis.

[4] = test system: EML4-ALK NSCLC PDX tumors (Champions PDX model CTG-0852); format: in vivo; settings: single agents, oral once daily, after 60 days; Compound I 50 mg/kg, crizotinib 20 mg/kg
[5] = test system: LC2/ad non-small cell lung cancer cells expressing an oncogenic CCDC6-RET fusion; test: LC2/ad cell proliferation by CellTiter-Glo; format: cell-based
Method: LC2/ad non-small cell lung cancer cells expressing an oncogenic CCDC6-RET fusion were dosed with increasing concentrations of Compound 1, a RET inhibitor selected from pralsetinib (BLU-667) or agerafenib (RXDX-105), or RET inhibitor+300 nM Compound 1. Cell proliferation was measured by CellTiter-Glo after six days.

CC(C)N1CCN(c2ccc(Nc3ncc4cc5n(c4n3)C3(CCCCC3)CNC5=O)nc2)CC1 [Compound IA Form B]
stability under thermal stress [1]: stable | long-term stability, time stable [2]: at least 1 year | solid form after dynamic vapor sorption [3]: remained in Form B

CC(C)N1CCN(c2ccc(Nc3ncc4cc5n(c4n3)C3(CCCCC3)CNC5=O)nc2)CC1 [Compound I]
median TGI for adenocarcinoma (NSCLC PDX models; NSCLC PDX models, adenocarcinoma, 100 mg/kg daily oral, up to 28 days): 73% | median TGI for squamous cell carcinoma (NSCLC PDX models; NSCLC PDX models, squamous cell carcinoma, 100 mg/kg daily oral, up to 28 days): 66% | sensitivity of PDX models by genetic alteration (NSCLC PDX models; models with genetic alterations such as KRAS and EGFR): increased sensitivity | sensitivity of PDX models by genetic alteration (NSCLC PDX models; models with genetic alterations such as RB1): resistance | TGI [4]: 87%

CO[C@]1(C(=O)N[C@@H](C)c2ccc(-n3cc(F)cn3)nc2)CC[C@H](c2nc(C)cc(Nc3cc(C)[nH]n3)n2)CC1 [pralsetinib, Pralsetinib]
300 nM relative to the IC50 for cellular proliferation [5]: > 10 fold

Reference: patent US20210030758A1, “TREATMENT OF CANCERS HAVING DRIVING ONCOGENIC MUTATIONS” (G1 Therapeutics, Inc., priority 2018, published 2021)
